According to patent US20120015925A1, “NOVEL BENZOTHIAZEPINE AND BENZOTHIEPINE COMPOUNDS” (ASAHI KASEI PHARMA CORPORATION, priority 2004, published 2012):

Key:
human IBAT = biological target: T1, human IBAT (Homo sapiens, UniProt Q12908); test: In vitro assay using Cos 7 cells, transiently expressed human IBAT; type: cell-based; conditions: [3H]-taurocholate 8 μM uptake, 37° C., 60 minutes
T1 sequence (Q12908 1-348): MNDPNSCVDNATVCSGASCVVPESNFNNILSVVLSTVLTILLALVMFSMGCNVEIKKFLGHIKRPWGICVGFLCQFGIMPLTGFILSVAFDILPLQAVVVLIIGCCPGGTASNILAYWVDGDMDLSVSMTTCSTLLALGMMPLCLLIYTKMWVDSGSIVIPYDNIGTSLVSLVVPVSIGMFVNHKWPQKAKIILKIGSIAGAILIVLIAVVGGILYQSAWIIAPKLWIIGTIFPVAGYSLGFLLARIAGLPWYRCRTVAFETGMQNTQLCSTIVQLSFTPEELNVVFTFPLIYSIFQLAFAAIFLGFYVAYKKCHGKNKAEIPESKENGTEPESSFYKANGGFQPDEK
In short: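 Cos 7 cells transfected with human or rat IBAT cDNA were assayed one day later in Hanks buffer with 25 mM glucose and 10 mM HEPES (pH 7.4) containing compound. [^3H]-taurocholate (8 μM final) uptake ran 60 min at 37° C. Cells were washed with 1 mM taurocholate, lysed in NaOH, and counted by liquid scintillation.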

[1] = system: rats fed cholesterol food; test: Blood cholesterol lowering effect in rats fed cholesterol food; type: in vivo, rat; conditions: oral, twice per day, SD (IGS) male rats, serum 3 hours after final administration
Protocol: In the present Test Example, a blood cholesterol lowering effect on rats fed cholesterol food was evaluated according to the method described in J. Lipid Res., 1995, 36, 1098-1105.
That is, the food containing 0.4% cholesterol and 0.5% bile acid was given to SD (IGS) strain male rats at 7 to 9 weeks of age for 5 days in advance of the test date, to increase blood cholesterol levels. The rats in which the blood cholesterol level had been obviously elevated from the level before loading the cholesterol food were selected as the subjects in the test. Colestimide (brand name: Cholebine 70% granules, supplied from Mitsubishi Tokyo Pharmaceutical Inc.) which is an anion exchange resin drug was suspended in distilled water, and the test compound was dissolved or suspended in distilled water. They were orally administered forcibly twice per day everyday from the starting date (each n=8). The blood was collected from jugular vein 3 hours after the drug administration on the final day of the experiment, and the cholesterol level in serum was measured to examine the effect of the test compound. As a control, another group (n=8) was merely fed cholesterol food, to which distilled water (1 mL/kg) was administered and the same procedure was applied. The total cholesterol value and the HDL cholesterol value were measured using commercially available kits. The value obtained by subtracting the HDL cholesterol value from the total cholesterol value was regarded as an LDL+VLDL cholesterol value.

rats dosed cholic acid = test: Lowering effect on bile acid concentrations in portal vein blood in rats dosed cholic acid; type: in vivo, rat
In short: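 Fasted male SD (IGS) rats aged 7–9 weeks received oral cholic acid (200 mg/kg) plus test compound in water with 0.05% or 1% surfactant (n=6). Portal vein serum total bile acid measured 2 h post-dose; reduction rate (%) calculated against cholic acid-only controls set as 100%.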

KKA^y/Ta Jcl male mice = test: Obesity and fatty liver model: body weight and liver triglyceride; type: in vivo, mouse; conditions: for BODY WEIGHT (g) BEFORE ADMINISTRATION: 1 mg/kg group, baseline; for BODY WEIGHT (g) DIFFERENCE / BODY WEIGHT (g) TWO WEEKS / LIVER TRIGLYCERIDE: 1 mg/kg once a day for 2 weeks
Protocol: In the present Test Example, an obesity and fatty liver model was employed with reference to the method described in WO02/09757.
That is, KKA^y/Ta Jcl male mice at 10 weeks of age were used as obese mice (N=4 to 7). The test compound was dissolved or suspended in the aqueous solution of 1% HCO 60 (supplied from Nippon Chemicals). The aqueous solution of 1% HCO 60 (supplied from Nippon Chemicals) was used as the control. The consecutive administration was performed once a day for 2 weeks, and body weight was measured daily and compared with the body weight on the day before the administration. On the day after the final administration, the liver was removed, and a triglyceride concentration in liver tissue was measured using a measurement kit (Triglyceride Test Wako, supplied from Wako Pure Chemical Industries). The results are shown in the following Table 14 (Tables 14-1 to 14-3).

[2] = system: Wistar rats given choline-deficient food; test: Steatohepatitis model: AST and ALT in blood; type: in vivo, rat; conditions: 3 mg/kg oral once a day for 2 weeks, n = 4, average ± standard error; for AST: control group (n = 6) 180 ± 46; for ALT: control group (n = 6) 245 ± 57
From the text: In the present Test Example, a steatohepatitis model was employed with reference to the method of Okan A et al. (Dig. Dis. Sci., 47:2389-2397, 2002).
That is, choline-deficient food (supplied from Oriental Yeast Co., Ltd.) was given to Wistar rats at 7 weeks of age for two weeks to prepare a steatohepatitis model. The test compound was suspended in an aqueous solution of 0.5% methylcellulose (supplied from Wako Pure Chemical Industries), and the aqueous solution of 0.5% methylcellulose (supplied from Wako Pure Chemical Industries) was used as the control. They were orally administered once a day for consecutive 2 weeks. The blood was collected from the abdominal aorta on the day after the final drug administration. AST (GOT) and ALT (GPT) in the blood were measured using the measurement kits (GOT II-HA Test Wako and GPT II Test Wako, supplied from Wako Pure Chemical Industries) with an automatic analyzer (Nitech ANALAYZER SUPER Z818).

[3] = 0.1 mg/kg oral with cholic acid 200 mg/kg, portal vein serum total bile acid 2 hours after, control = 100%, surfactant HCO-60 (##)
[4] = Table 14-2, control group 44.1 ± 0.6
[5] = Table 14-2, control group 0.7 ± 0.4
[6] = Table 14-2, control group 44.8 ± 0.9
[7] = Table 14-2, control group 103 ± 19
[8] = Table 14-1, control group 42.8 ± 0.4
[9] = Table 14-1, control group 42.0 ± 0.7
[10] = Table 14-1, control group 94 ± 18
[11] = Table 14-1, control group −0.8 ± 0.5

IC50 (human IBAT) | SMILES | LDL + VLDL REDUCTION RATE (%) IN CHOLESTEROL FED RAT MODEL (THERAPEUTIC MODEL) ([1]; 0.3 mg/kg per administration) | BILE ACID REDUCTION RATE (%) IN RAT MODEL WITH CHOLIC ACID LOADING (rats dosed cholic acid; [3]) | BODY WEIGHT (g) BEFORE ADMINISTRATION (KKA^y/Ta Jcl male mice; [4]) | BODY WEIGHT (g) DIFFERENCE (KKA^y/Ta Jcl male mice; [5]) | BODY WEIGHT (g) TWO WEEKS (KKA^y/Ta Jcl male mice; [6]) | LIVER TRIGLYCERIDE (KKA^y/Ta Jcl male mice; [7]) | AST [2] | ALT [2] | LDL + VLDL REDUCTION RATE (%) IN CHOLESTEROL FED RAT MODEL (THERAPEUTIC MODEL) ([1]; 1 mg/kg per administration) | BILE ACID REDUCTION RATE (%) IN RAT MODEL WITH CHOLIC ACID LOADING (rats dosed cholic acid; 0.1 mg/kg oral, surfactant Tween 20 0.05%, cholic acid 200 mg/kg, portal vein blood 2 hours after administration) | BODY WEIGHT (g) BEFORE ADMINISTRATION (KKA^y/Ta Jcl male mice; [8]) | BODY WEIGHT (g) TWO WEEKS (KKA^y/Ta Jcl male mice; [9]) | LIVER TRIGLYCERIDE (KKA^y/Ta Jcl male mice; [10]) | BODY WEIGHT (g) DIFFERENCE (KKA^y/Ta Jcl male mice; [11]) | BILE ACID REDUCTION RATE (%) IN RAT MODEL WITH CHOLIC ACID LOADING (rats dosed cholic acid; 0.1 mg/kg oral, surfactant HCO-60 0.1%, cholic acid 200 mg/kg, portal vein blood 2 hours after administration)
37 nM | C#CC[N+](C)(Cc1ccccc1)Cc1ccc(NC(=S)Nc2cccc(C3NC(CCCC)(CCCC)CS(=O)(=O)c4ccc(N(C)C)cc43)c2)cc1.[Br-] (racemic) [EXAMPLE 3448] | 20% | 25% | 44.1 ± 0.7 g | -2.0 ± 0.7 g | 42.1 ± 3.2 g | 74 ± 8 mg/g | 134 ± 23 IU/L | 143 ± 79 IU/L |  |  |  |  |  |  | 
39 nM | CCCCC1(CCCC)CS(=O)(=O)c2ccc(N(C)C)cc2C(c2cccc(NC(=S)Nc3ccc(C[N+]45CCC(c6ccccc6)(CC4)CC5)cc3)c2)N1.[Br-] (racemic) [EXAMPLE 3696] | 25% | 13% | 43.5 ± 1.3 g | -1.3 ± 0.3 g | 42.2 ± 2.2 g | 76 ± 12 mg/g | 98 ± 23 IU/L | 145 ± 34 IU/L |  |  |  |  |  |  | 
 | CCCCC1(CCCC)CS(=O)(=O)c2ccc(N(C)C)cc2C(c2cccc(NC(=S)CCCCC[N+]34CCC(CC3)CC4)c2)N1.[Br-] (stereo not shown) [EXAMPLE 1, 1-{5-[3-(3,3-dibutyl-7-dimethylamino-1,1-dioxo-2,3,4,5-tetrahydro-1,4-benzothiazepine-5-yl)phenylthiocarbamoyl]pentyl}-1-azoniabicyclo[2.2.2]octane bromide] | 49% |  |  |  |  |  |  |  | 68.4% | 51% | 43.0 ± 0.5 g | 41.0 ± 0.6 g | 71 ± 13 mg/g | -1.9 ± 0.3 g | 
37 nM | CCCCC1(CCCC)CS(=O)(=O)c2ccc(N(C)C)cc2C(c2cccc(NC(=S)Nc3ccc(C[N+](C)(C)Cc4ccccc4)cc3)c2)N1.[Br-] (stereo not shown) [EXAMPLE 3440] | 36% |  | 44.6 ± 0.8 g | -0.7 ± 1.0 g | 43.9 ± 1.8 g | 88 ± 6 mg/g | 125 ± 34 IU/L | 167 ± 93 IU/L |  |  |  |  |  |  | 26%
39 nM | CCCCC1(CCCC)CS(=O)(=O)c2ccc(N(C)C)cc2C(c2cccc(NC(=S)Nc3ccc(C[N+]4(Cc5ccccc5)CCC(O)CC4)cc3)c2)N1.[Br-] (stereo not shown) [EXAMPLE 3605] | 28% | 24% |  |  |  |  | 80 ± 34 IU/L | 121 ± 36 IU/L |  |  | 42.9 ± 1.1 g | 41.4 ± 1.0 g | 65 ± 7 mg/g | -1.5 ± 0.4 g | 
37 nM | CCCCC1(CCCC)CS(=O)(=O)c2ccc(N(C)C)cc2C(c2cccc(NC(=S)Nc3ccc(C[n+]4ccc(C(C)(C)C)cc4)cc3)c2)N1.[Br-] (stereo not shown) [EXAMPLE 3713] | 41% | 32% | 44.0 ± 1.1 g | -2.5 ± 0.6 g | 41.5 ± 2.4 g | 59 ± 33 mg/g | 77 ± 37 IU/L | 118 ± 36 IU/L |  |  |  |  |  |  | 
45 nM | CCCCC1(CCCC)CS(=O)(=O)c2ccc(N(C)C)cc2C(c2cccc(NC(=S)Nc3ccc(C[n+]4cccc(CCCO)c4)cc3)c2)N1.[Br-] (stereo not shown) [EXAMPLE 3747] | 48% | 40% | 44.3 ± 0.8 g | -2.1 ± 1.0 g | 42.2 ± 1.8 g | 47 ± 23 mg/g | 63 ± 86 IU/L | 102 ± 50 IU/L |  |  |  |  |  |  | 
41 nM | CCCCC1(CCCC)CS(=O)(=O)c2ccc(N(C)C)cc2C(c2cccc(NC(=S)Nc3ccc(C[n+]4cccc(CCC(=O)OC)c4)cc3)c2)N1.[Br-] (stereo not shown) [EXAMPLE 3752] | 50% | 42% | 43.8 ± 1.2 g | -2.3 ± 0.9 g | 41.5 ± 1.0 g | 56 ± 23 mg/g | 69 ± 98 IU/L | 88 ± 45 IU/L |  |  |  |  |  |  | 
32 nM | CCCCC1(CCCC)CS(=O)(=O)c2ccc(N(C)C)cc2C(c2cccc(NC(=S)Nc3ccc(C[n+]4ccccc4CCC)cc3)c2)N1.[Br-] (stereo not shown) [EXAMPLE 5408] | 43% | 35% | 44.0 ± 0.9 g | -1.8 ± 0.5 g | 42.2 ± 1.6 g | 70 ± 11 mg/g | 103 ± 45 IU/L | 149 ± 38 IU/L |  |  |  |  |  |  | 
